# Data taken from patent US20240165089A1, “METHOD FOR TREATING MYOPIA WITH VINPOCETINE” (EYE HOSPITAL, WENZHOU MEDICAL UNIVERSITY, priority 2021, published 2024).
# Tested on: form deprivation myopia (FDM) guinea pig model
# Experiment: FDM guinea pig model, systemic (gavage) administration
# Format: in vivo
# Conditions: for axial length difference between the eyes / vitreous chamber depth difference between the eyes / refraction difference between the eyes / body weight: FDM; for refraction difference between the eyes: end of treatment (2 weeks); for body weight / mean weight decrease vs solvent group: vinpocetine 50 mg/kg/d gavage
# From the text: The form deprivation myopia animal model and the method for evaluating the efficacy of vinpocetine for myopia treatment used in this experiment were the same as other relevant embodiments (local administration) in this application. Among them, the establishment of a guinea pig model of form deprivation myopia (FDM) and the gavage administration were manipulated and performed referring to the published literature in the inventor's laboratory. […] On the first day of the experiment, form deprivation (FD) myopia modeling began at 8 a.m. on the guinea pigs. The form deprivation myopia model adopted the mask method. The hood was made by the inventors using a 10-inch milky white non-toxic latex balloon. The right eye of the individual guinea pig for modeling was covered by the hood (experimental eye), and the left eye was not covered by the hood (contralateral eye). FD induction was continued during the entire vinpocetine efficacy experiment cycle by gavage administration, and the hood was only briefly removed during eye testing (such as refraction testing). […] The administration route was gavage administration. […] Administration was performed once a day for 2 weeks. […] 2017). Without adding other pharmaceutical excipients or other compounds, the inventors directly and completely dissolved the vinpocetine compound powder in 0.5% methylcellulose solvent (sterile water+methylcellulose) to prepare a vinpocetine preparation (gavage liquid) at 10 mg/mL and 20 mg/mL. The overall appearance of the preparation at room temperature was clear, transparent, and uniform, with no suspended matter visible to the naked eye. The preparation process of the preparation may use conventional physical and chemical solubilization means such as heating, stirring, and pH adjustment as appropriate, and no compounds would precipitate before administration of the preparation.
# [1] = vinpocetine 50 mg/kg gavage, 2 weeks
# [2] = vinpocetine 100 mg/kg gavage, 2 weeks
structure (smiles),measurement,setting,value
CCOC(=O)C1=C[C@]2(CC)CCCN3CCc4c(n1c1ccccc41)[C@@H]32 [vinpocetine],axial length difference between the eyes,[1],0.13±0.05 mm
same,vitreous chamber depth difference between the eyes,[1],0.13±0.07 mm
same,refraction difference between the eyes,vinpocetine 50 mg/kg gavage,−5.71±2.41 D
same,body weight,1 week,188 ± 22.9 g
same,body weight,2 weeks,210 ± 21.9 g
same,axial length difference between the eyes,[2],0.11±0.05 mm
same,vitreous chamber depth difference between the eyes,[2],0.10±0.06 mm
same,refraction difference between the eyes,vinpocetine 100 mg/kg gavage,−5.223±2.20 D
same,mean weight decrease vs solvent group,1 week,9.9%
same,mean weight decrease vs solvent group,2 weeks,8.4%
